Laboratory results: publication PMC5769128, “Human UDP-Glucuronosyltransferase 2B4 and 2B7 Are Responsible for Naftopidil Glucuronidation in Vitro” (Frontiers in Pharmacology, 2018)

Legend:
recombinant human UGT1A6 = biological target: T1, recombinant human UGT1A6 (Homo sapiens, UniProt P19224); assay: UGT reaction screening of NAF enantiomers, UGT1A6; settings: 10 μM substrate, 45 min
T1 sequence (P19224 27-532): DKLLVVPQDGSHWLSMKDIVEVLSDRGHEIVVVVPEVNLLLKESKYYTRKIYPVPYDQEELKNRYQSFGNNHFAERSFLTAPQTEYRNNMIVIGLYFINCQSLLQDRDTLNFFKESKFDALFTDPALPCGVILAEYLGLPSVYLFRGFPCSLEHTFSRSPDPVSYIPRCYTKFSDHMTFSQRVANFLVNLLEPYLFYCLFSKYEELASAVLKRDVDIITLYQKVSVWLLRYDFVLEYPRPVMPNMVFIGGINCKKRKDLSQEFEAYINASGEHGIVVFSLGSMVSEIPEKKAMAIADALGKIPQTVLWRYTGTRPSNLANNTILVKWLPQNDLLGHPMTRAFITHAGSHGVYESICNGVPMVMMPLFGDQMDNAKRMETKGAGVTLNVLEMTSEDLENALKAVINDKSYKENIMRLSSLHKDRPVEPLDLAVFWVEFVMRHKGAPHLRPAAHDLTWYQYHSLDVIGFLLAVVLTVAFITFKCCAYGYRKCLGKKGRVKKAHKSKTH

[1] = test system: UGT1A1, 1A4, 1A3, 2B17, 1A8, 2B15, and 1A7; assay: UGT reaction screening of R(+)-NAF, minor isoforms; format: in vitro ADME, human; settings: 10 μM substrate, 45 min
recombinant human UGT2B4 [2] = biological target: T2, recombinant human UGT2B4 (Homo sapiens, UniProt P06133); assay: Kinetics of NAF enantiomer glucuronidation by recombinant UGT2B4; format: in vitro ADME
T2 construct: purchased BD Gentest
T2 sequence (P06133 24-528): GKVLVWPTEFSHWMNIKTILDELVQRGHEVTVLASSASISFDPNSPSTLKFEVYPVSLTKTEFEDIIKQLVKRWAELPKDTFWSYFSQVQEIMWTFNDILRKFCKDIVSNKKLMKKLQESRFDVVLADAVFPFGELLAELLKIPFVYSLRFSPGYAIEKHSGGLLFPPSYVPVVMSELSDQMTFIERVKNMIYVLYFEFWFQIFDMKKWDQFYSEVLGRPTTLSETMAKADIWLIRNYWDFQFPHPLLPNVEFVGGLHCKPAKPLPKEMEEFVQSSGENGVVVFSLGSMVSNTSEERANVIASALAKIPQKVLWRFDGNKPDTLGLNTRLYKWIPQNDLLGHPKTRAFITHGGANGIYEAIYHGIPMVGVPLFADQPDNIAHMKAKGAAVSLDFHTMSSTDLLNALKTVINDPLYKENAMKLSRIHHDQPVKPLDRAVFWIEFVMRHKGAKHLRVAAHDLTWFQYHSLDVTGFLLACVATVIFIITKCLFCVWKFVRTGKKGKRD
Protocol: All glucuronidation assays were conducted in an incubation volume of 200 μL. Incubations were performed at 37°C in 50 mM Tris–HCl buffer (pH 7.5) with 10 mM magnesium chloride, 1 mg protein/mL of enzyme (microsomes and recombinant human UGTs), alamethicin (100 μg of alamethicin/mg microsomal protein), and NAF enantiomers (2.5–80 μM). The reaction was initiated by the addition of UDPGA (5 mM) and incubated at 37°C in a shaking water bath for 45 min. The reaction was terminated by the addition of 200 μL of ice-cold acetonitrile containing the IS (1 μM) and then centrifuged at 5000 ×g for 10 min at 4°C. The supernatant fraction was injected into the RRLC-MS/MS apparatus. Protein concentration (0.5–2 mg/mL) and incubation time (15–180 min) were optimized in preliminary studies to be within initial linear rate conditions.
Kinetic parameters were assessed in the HLM, RLM, HKM, RKM, and recombinant human UGTs (UGT2B4, 2B7, and 1A9).

[3] = test system: UGT1A4, 1A3, 2B17, 2B15, 1A9, 1A8, and 1A7; assay: UGT reaction screening of S(-)-NAF, minor isoforms; format: in vitro ADME, human; settings: 10 μM substrate, 45 min
recombinant human UGT2B4 [4] = biological target: T2, recombinant human UGT2B4; assay: UGT reaction screening of NAF enantiomers, UGT2B4; format: in vitro ADME; settings: 10 μM substrate, 45 min

Row | Glucuronide formation by UGT1A6 (recombinant human UGT1A6) | Kinetics type (recombinant human UGT2B4 [2]) | Glucuronidation activity of UGT2B4 compared with UGT2B7 (recombinant human UGT2B4 [4]) | Compound | Glucuronidation activity, times lower than UGT2B7 [1] | Glucuronidation activity [3]
1 | No R(+)-NAF-G was detected | substrate inhibition model | – | COc1ccccc1N1CCN(C[C@@H](O)COc2cccc3ccccc23)CC1 [R(+)-NAF] | more than 10 times | –
2 | no activity | substrate inhibition model | relatively higher activity than UGT2B7 | COc1ccccc1N1CCN(C[C@H](O)COc2cccc3ccccc23)CC1 [S(-)-NAF] | – | a small amount of activity
